# According to US8444858B2, “Control of development of biofilms in industrial process water” (A.Y. Laboratories Ltd., priority 2001, dated 2013):
# Where two headings read alike, the source gives them in different places.
# What was measured:
# [1] = test system: microorganisms, principally bacteria; details: for silo/slime formers: Plate Count agar with high excess of glucose; for silo/total count: R2A Agar
# Protocol: Process water samples were drawn and immediately inactivated with sodium thiosulfate to degrade any residue of the biofilm inhibiting substance. Samples were then serially ten-fold diluted in a Trypton (DIFCO) saline dilution medium. The diluted samples were plated in molten R2A Agar (hereinafter=“total count”) and in molten Plate Count agar containing a high excess of glucose (hereinafter “slime formers”). The agar solidified at room temperature and the plates were incubated at 35° C. for 48 h.
# biofilm [2] = experiment: Pilot plant wastewater pipes, difference in Hazen-Williams coefficient treated vs control pipe; details: for HW Diff. treated pipe - Control: single 3 h treatment on day 1 at 10 ppm as total chlorine
# Protocol: Treated wastewater was pumped through several pipes of 10 m length and 4 inches inner diameter in a pilot plant. […] Pressure drop through each pipe was monitored on-line, and average HW coefficients were calculated.
# The biofilm inhibiting substance in this example was produced as follows, using a small feeding system was built specifically for this trial. […] The concentration of the biofilm inhibiting substance pre-injection solution was ˜3600 ppm and the pH was 9.2-9.6. […]
# [3] = De-inking plant field trial, residual H2O2, residual biofilm inhibiting substance and H2O2 consumption
# Protocol: A de-inking system had been using 7-10 kg H2O2 per ton of waste paper.
# The reaction pH was Maintained at 9.8-10.0. The Production process was controlled to ensure synchronous metering of the two chemicals, continuous mixing at the predetermined molar ratio and reproducible production of a stable biofilm inhibiting substance stock solution for the duration of the trial and longer. […] After 850 minutes the dosing rate was reduced to 85 g/ton expressed as total Cl2 by feeding the biofilm inhibiting substance semi-continuously. Various parameters were monitored during start-up of the trial: Residual biofilm inhibiting substance was measured (using a Hach pocket colorimeter, total Cl2, based on the DPD method adapted from Standard Methods for Examination of Waste and Waste Water). […] When necessary, samples were diluted with DI water.
# biofilm [4] = experiment: Waste water fouling control in a 7 km pipe, Hazen-Williams coefficient
# Protocol: Treated wastewater was piped from a wastewater treatment plant to a location 7 kilometers away.
# (The Hazen-Williams coefficient is used to express water flow through industrial pipes. It is calculated using the formula
# [formula] wherein P is the friction pressure drop expressed in pounds per square inch per 1000 feet of pipe length, B is the flow rate in barrels per hour, s is the specific gravity of the liquid, C=a friction factor (the Hazen-Williams coefficient), and d is the internal diameter of the pipe in inches. P and B are measured for a given pipe, s and d are treated as constants, and C is calculated. The results are presented as the Hazen-Williams coefficient.
# Waste water (up to 10 m^3/h) was used to appropriately dilute both chemicals. An on-line pH meter controlled the production process and the hypochlorite feeding rate to ensure the production of a stable biofilm inhibiting substance. The biofilm inhibiting substance was injected into the treated waste pipe as it was produced. Concentration of the biofilm inhibiting substance stock solution was 3000-4000 ppm; the pH was maintained at 9.5-10.
# [5] = day 1 of trial, cleaning period
# [6] = day 2 of trial, cleaning period
# [7] = day 3 of trial, cleaning period
# [8] = day 4 of trial, cleaning period
# [9] = day 6 of trial, cleaning period
# [10] = day 7 of trial, cleaning period
# [11] = day 8 of trial, cleaning period
# [12] = day 9 of trial, cleaning period
# [13] = day 10 of trial, cleaning period
# [14] = day 13 of trial, cleaning period
# [15] = day 16 of trial, clean paper machine
# [16] = day 17 of trial, clean paper machine
# [17] = day 20 of trial, clean paper machine
# [18] = day 21 of trial, clean paper machine
# [19] = day 24 of trial, clean paper machine
# [20] = day 27 of trial, clean paper machine
substance,measurement,setting,value
bromide activated chloramine [Fuzzicide BAC],silo/slime formers,[1]; [5],1.0 × 10^1 cfu
same,silo/total count,[1]; [5],1 × 10^0 cfu
same,silo/slime formers,[1]; [6],5.92 × 10^3 cfu
same,silo/total count,[1]; [6],5.68 × 10^4 cfu
same,silo/slime formers,[1]; [7],2.0 × 10^2 cfu
same,silo/total count,[1]; [7],4.8 × 10^4 cfu
same,silo/slime formers,[1]; [8],1.0 × 10^0 cfu
same,silo/total count,[1]; [8],7.6 × 10^3 cfu
same,silo/slime formers,[1]; [9],1.2 × 10^2 cfu
same,silo/total count,[1]; [9],3.8 × 10^3 cfu
same,silo/slime formers,[1]; [10],1.0 × 10^0 cfu
same,silo/total count,[1]; [10],4.0 × 10^3 cfu
same,silo/slime formers,[1]; [11],4.0 × 10^1 cfu
same,silo/total count,[1]; [11],1.68 × 10^3 cfu
same,silo/slime formers,[1]; [12],2.2 × 10^2 cfu
same,silo/total count,[1]; [12],5.0 × 10^3 cfu
same,silo/slime formers,[1]; [13],1.0 × 10^0 cfu
same,silo/total count,[1]; [13],1.18 × 10^3 cfu
same,silo/slime formers,[1]; [14],1.0 × 10^1 cfu
same,silo/total count,[1]; [14],2.4 × 10^3 cfu
same,silo/slime formers,[1]; [15],1.0 × 10^0 cfu
same,silo/total count,[1]; [15],2.0 × 10^2 cfu
same,silo/slime formers,[1]; [16],1.0 × 10^0 cfu
same,silo/total count,[1]; [16],6.0 × 10^1 cfu
same,silo/slime formers,[1]; [17],1.0 × 10^0 cfu
same,silo/total count,[1]; [17],3.0 × 10^2 cfu
same,silo/slime formers,[1]; [18],1.0 × 10^0 cfu
same,silo/total count,[1]; [18],7.5 × 10^2 cfu
same,silo/slime formers,[1]; [19],1.0 × 10^0 cfu
same,silo/total count,[1]; [19],1.0 × 10^2 cfu
same,silo/slime formers,[1]; [20],1.0 × 10^0 cfu
same,silo/total count,[1]; [20],1.1 × 10^2 cfu
same,viable counts in process water samples taken from the silo,"[1]; initial cleaning period, irrespective of high or low residue of Fuzzicide BAC",10^3-10^4 viable cells per ml
same,HW Diff. treated pipe - Control,biofilm [2]; day 1,14.3
same,"HW Difference, Fuzzicide BAC - Control","biofilm [2]; day 1 of trial (treatment day), 10 ppm as total chlorine for 3 h three times a week",10.12
same,HW Diff. treated pipe - Control,biofilm [2]; day 2,13.7
same,"HW Difference, Fuzzicide BAC - Control","biofilm [2]; day 2 of trial, 10 ppm as total chlorine for 3 h three times a week",11.25
same,HW Diff. treated pipe - Control,biofilm [2]; day 3,12.8
same,"HW Difference, Fuzzicide BAC - Control","biofilm [2]; day 3 of trial, 10 ppm as total chlorine for 3 h three times a week",11.62
same,HW Diff. treated pipe - Control,biofilm [2]; day 4,16.5
same,"HW Difference, Fuzzicide BAC - Control","biofilm [2]; day 4 of trial, 10 ppm as total chlorine for 3 h three times a week",13.04
same,HW Diff. treated pipe - Control,biofilm [2]; day 5,16.0
same,"HW Difference, Fuzzicide BAC - Control","biofilm [2]; day 5 of trial (treatment day), 10 ppm as total chlorine for 3 h three times a week",12.35
same,HW Diff. treated pipe - Control,biofilm [2]; day 6,16.55
same,"HW Difference, Fuzzicide BAC - Control","biofilm [2]; day 6 of trial, 10 ppm as total chlorine for 3 h three times a week",13.76
same,HW Diff. treated pipe - Control,biofilm [2]; day 7,15.8
same,"HW Difference, Fuzzicide BAC - Control","biofilm [2]; day 7 of trial, 10 ppm as total chlorine for 3 h three times a week",15.13
same,HW Diff. treated pipe - Control,biofilm [2]; day 8,14.3
same,HW Diff. treated pipe - Control,biofilm [2]; day 9,16.9
same,HW Diff. treated pipe - Control,biofilm [2]; day 10,15.3
same,HW Diff. treated pipe - Control,biofilm [2]; day 11,16.0
same,HW Diff. treated pipe - Control,biofilm [2]; day 12,18.1
same,HW Diff. treated pipe - Control,biofilm [2]; day 13,17.2
same,HW Diff. treated pipe - Control,biofilm [2]; day 14,15.0
same,HW Diff. treated pipe - Control,biofilm [2]; day 15,11.9
same,HW Diff. treated pipe - Control,biofilm [2]; day 16,9.1
same,HW Diff. treated pipe - Control,biofilm [2]; day 17,7.3
same,HW Diff. treated pipe - Control,biofilm [2]; day 18,7.2
same,"HW Difference, Fuzzicide BAC - Control","biofilm [2]; day 26 of trial, between days 7 and 26 the biocide was improperly prepared, rendering it ineffective",6.11
same,"HW Difference, Fuzzicide BAC - Control","biofilm [2]; day 27 of trial (treatment day), 10 ppm as total chlorine for 3 h three times a week",6.67
same,"HW Difference, Fuzzicide BAC - Control","biofilm [2]; day 28 of trial, 10 ppm as total chlorine for 3 h three times a week",7.13
same,"HW Difference, Fuzzicide BAC - Control","biofilm [2]; day 29 of trial (treatment day), 10 ppm as total chlorine for 3 h three times a week",8.75
same,"HW Difference, Fuzzicide BAC - Control","biofilm [2]; day 30 of trial, 10 ppm as total chlorine for 3 h three times a week",8.93
same,"HW Difference, Fuzzicide BAC - Control","biofilm [2]; day 31 of trial, 10 ppm as total chlorine for 3 h three times a week",8.93
same,"HW Difference, Fuzzicide BAC - Control","biofilm [2]; day 32 of trial, 10 ppm as total chlorine for 3 h three times a week",9.02
same,"HW Difference, Fuzzicide BAC - Control","biofilm [2]; day 33 of trial (treatment day), 10 ppm as total chlorine for 3 h three times a week",8.89
same,"HW Difference, Fuzzicide BAC - Control","biofilm [2]; day 34 of trial, 10 ppm as total chlorine for 3 h three times a week",8.93
same,"HW Difference, Fuzzicide BAC - Control","biofilm [2]; day 35 of trial, 10 ppm as total chlorine for 3 h three times a week",9.12
same,"HW Difference, Fuzzicide BAC - Control","biofilm [2]; day 36 of trial (treatment day), 10 ppm as total chlorine for 3 h three times a week",10.31
same,"HW Difference, Fuzzicide BAC - Control","biofilm [2]; day 37 of trial, 10 ppm as total chlorine for 3 h three times a week",9.96
same,"HW Difference, Fuzzicide BAC - Control","biofilm [2]; day 38 of trial, 10 ppm as total chlorine for 3 h three times a week",13.97
same,H2O2 feed rate maintaining de-inking bleaching targets,[3]; after a few more days of semi-continuous dosing,~2.2 kg/ton
same,feed rate of H2O2 needed in order to maintain bleaching set point,"[3]; after about 48 hours of semi-continuous dosing, before trial 7-10 kg H2O2 per ton of waste paper",~4 kg/ton
same,Hazen-Williams coefficient (HW) maintenance,"biofilm [4]; 10 ppm as total chlorine for three hours once a week, over a period of months, after cleaning",constant value
same,Hazen-Williams coefficient (HW),"biofilm [4]; 10 ppm as total chlorine once a day for three hours for 6 consecutive days, HW before ~90",~104
same,Hazen-Williams coefficient (HW),"biofilm [4]; combination of pigging and 10 ppm (as total Cl2) once a day for three hours, HW before ~104",~116
